Data published in US7737305B2, “Sulfonic acid polyol compound, polyurethane resin, polyurethane resin for magnetic recording medium, and magnetic recording medium” (FUJIFILM Corporation, priority 2007, dated 2010).

Tests used:
[1] = Solubility test in cyclohexanone (residue after dissolution); format: physicochemical; conditions: 1 part by weight in 5 parts by weight of cyclohexanone, 40° C., 3 hours, ultrasonic waves, filtered
Protocol: (1-2) Solubility Test Method
1 part by weight of sulfonic acid (salt) diol compound was added to 5 parts by weight of cyclohexanone, and dissolution was carried out at 40° C. for 3 hours using ultrasonic waves. A solution thus obtained was filtered, and the presence/absence of a residue after dissolution was checked.

[2] = background statement; cited from earlier work

SMILES	presence/absence of a residue after dissolution [1]	solubility in organic solvents [2]
O=S(=O)([O-])CCN(CCO)CCO.[Na+]	a residue was found	
O=S(=O)([O-])CCN(CCO)CCO.[K+]	a residue was found	
O=S(=O)(O)CCN(CCO)CCO [N,N-bis(2-hydroxyethyl)-2-aminoethanesulfonic acid]	a residue was found	does not dissolve in organic solvents
O=S(=O)([O-])CCN(CCO)CCO.[Li+]	a residue was found	
